According to patent US20260232758A1, “Low Cost Efficient Intracellular Delivery of Proteins and Nucleic Acids via Hydrophobic Ion Pairing” (Georgia Tech Research Corporation, priority 2023, published 2026):

Columns and labels:
[1] = cited from earlier work
[2] = test system: red blood cells; assay: Hemolytic activity assay (hemoglobin release from red blood cells); type: cell-based
Experimental: FIG. 7 provides hemolytic activity for Cytochrome C, OA, SD, HIP CytC OA, and HIP CytC SD at 37° C. and 4° C. to show the influence of membrane stiffness on membrane interaction, in accordance with some embodiments of the present disclosure. 20 μM CytC was given to each group and the concentration of counterion given was consistent with the charge ratios used for delivery experiments. Washed red blood cells were diluted to 0.5% v/v in PBS and 1% v/v Triton X-100 was used as the positive control.
Washed red blood cells (RBC's) were diluted to a 5% v/v concentration in PBS. 100 μL of nanoparticles or treatment were incubated with 10 μL RBC's at 37° C. for 1 hour in a 96 well plate. After incubation with HIP treatment groups, the microplate reader was used to measure released hemoglobin from membrane disruption using 541 nm and subtracting background at 561 nm, then normalizing hemolytic activity to 5% Triton X-100. For imaging RBC's and NIH3T3/eGFP cells, an epifluorescent microscope (Zeiss Axio Observer Z1) with an 40× lens. […]

[3] = Dynamic light scattering: z-average size and polydispersity of HIP complexes; type: physicochemical; settings: DLS
Experimental: Size and zeta potential were measured using dynamic light scattering (DLS) using Malvern Instruments Zetasizer NanoZS intensity mode with a 4 mW He—Ne laser with 633 nm wavelength to detect backscattering) (173° using 1× for DLS or 0.1× PBS for zeta potential at pH 7.4 solvent conditions and protein material selection. Z-average values were used for HIP complex size. Electrophoretic mobility was converted to zeta potential using the Smoluchowski approximation. Imaging of solutions was performed using an epifluorescence microscope (Zeiss Axio Observer Z1) using a 100× oil immersion lens. Transmission electron microscopy (TEM) grids were prepared using 10 μL sample on copper grids, letting the sample adhere for 5 minutes, washing in water for 30 seconds, staining with 1% phosphotungstic acid for 10 seconds, washing again for 30 seconds, and drying overnight. A JEOL 100 CX-II TEM was utilized to visualize samples.

Compound	Log P [1]	hemolytic activity at reduced temperature ([2]; 4° C. compared with 37° C.)	polydispersity index (PDI) [3]	z-average hydrodynamic diameter ([3]; 1× PBS pH 7.4)	relative hemolytic activity ([2]; 37° C., same concentration as in HIP CytC complexes)
c1ccc(CCNCc2ccccc2)cc1 [benethamine, N-benzyl-2-phenylthanamine]	3.6	–	–	–	–
CCCCC(CC)COC(=O)CC(C(=O)OCC(CC)CCCC)S(=O)(=O)[O-].[Na+] (stereo not drawn) [sodium docusate, reference compound]	5.2	remained high	–	–	–
CytC: 12.4 kDa positively charged protein; induces apoptosis upon delivery to the mitochondrial membrane	–	–	0.542±0.17	729±460 nm	greater than 100%
